System: subjects with moderate-to-severe plaque psoriasis
Experiment: PASI response, Example 1 16-week dose-ranging study
Type: in vivo, human
Conditions: for Subjects achieving PASI 75: Week 4
Protocol: The Psoriasis Area and Severity Index (PASI) is a system used for assessing and grading the severity of psoriatic lesions and their response to therapy. In the PASI system, the body is divided into four regions: the head, trunk, upper extremities, and lower extremities. Each of these areas is assessed and scored separately for erythema, induration, and scaling, which are each rated on a scale of 0 to 4 and extent of involvement on a scale of 0 to 6. The PASI produces a numeric score (a “PASI score”) that can range from 0 to 72. A higher score indicates more severe disease.
This was a randomized, double-blind, placebo-controlled, dose-ranging, parallel group, multicenter, interventional study in subjects with moderate-to-severe plaque psoriasis. A target of 240 subjects were enrolled in this study with 40 subjects planned per intervention group.
Clinician-reported outcomes including Psoriasis Area and Severity Index (PASI), Body Surface Area (BSA), Investigator's Global Assessment (IGA), Nail Psoriasis Area and Severity Index (NAPSI), Fingernail Physician's Global Assessment (f-PGA), Static Physician's Global Assessment of Genitalia (s-PGA-G), Physician's Global Assessment of Hands and/or Feet (hf-PGA), and Scalp Specific Investigator Global Assessment (ss-IGA) were obtained at Week 0, 8, and 16. PASI and IGA were also obtained at Weeks 1, 2, 4, and 12, and at Week 20, four weeks after the administration of the tablets has stopped.
The primary efficacy endpoint was the proportion of participants achieving a PASI 75 response at Week 16, defined as at least a 75% reduction from baseline in PASI total score.
For the primary analysis, composite strategy (non-responder imputation) was applied to address intercurrent event #1 (Discontinuation of study intervention due to lack of efficacy or due to an AE of worsening of psoriasis) and #2 (initiation of a protocol-prohibited medication or therapy that could improve psoriasis); and treatment policy strategy (observed data) was applied to intercurrent event #3 (Discontinuation of study intervention due to other reasons). Participants with missing data after application of ICEs are also considered as non-responders.
In addition to the response analysis, pairwise comparisons of each treatment group versus the placebo group were performed for the primary endpoint of PASI 75 at Week 16. Pairwise comparisons were not adjusted for multiplicity. The Cochran-Mantel-Haenszel chi-square statistic stratified by baseline weight category (≤90 kg, >90 kg) at a 2-sided significance level of 0.05 was used (Table 2).

[1] = 25 mg QD, Week 16, trough plasma conc ≥Q3
[2] = 50 mg QD, Week 16, peak plasma conc. <Q1, N=2
[3] = 50 mg QD, Week 16, peak plasma conc. Q1 to <Q2, N=2
[4] = 50 mg QD, Week 16, peak plasma conc. Q2 to <Q3, N=2
[5] = 50 mg QD, Week 16, peak plasma conc. ≥Q3, N=2
[6] = 50 mg QD, Week 16, trough plasma conc <Q1
[7] = 50 mg QD, Week 16, trough plasma conc Q1 to <Q2
[8] = 50 mg QD, Week 16, trough plasma conc Q2 to <Q3
[9] = 50 mg QD, Week 16, trough plasma conc ≥Q3
[10] = 100 mg BID, Week 16, peak plasma conc. <Q1, N=2
[11] = 100 mg BID, Week 16, peak plasma conc. Q1 to <Q2, N=3
[12] = 100 mg BID, Week 16, peak plasma conc. Q2 to <Q3, N=2
[13] = 100 mg BID, Week 16, peak plasma conc. ≥Q3, N=3
[14] = 100 mg BID, Week 16, trough plasma conc <Q1

CC(=O)NCCCC[C@@H]1NC(=O)[C@H](Cc2c[nH]c3c(C)cccc23)NC(=O)[C@H]([C@@H](C)O)NC(=O)[C@H](CC(N)=O)NC(=O)[C@@H](NC(C)=O)C(C)(C)SSC(C)(C)[C@@H](C(=O)N[C@@H](Cc2ccc(OCCN)cc2)C(=O)N[C@@H](Cc2ccc3ccccc3c2)C(=O)NC2(C(=O)N[C@@H](CCC(=O)O)C(=O)N[C@@H](CC(N)=O)C(=O)N[C@@H](Cc3cccnc3)C(=O)N(C)CC(N)=O)CCOCC2)NC1=O [IL-23 receptor antagonist peptide, Ac-[Pen]*-N-T-[W(7-Me)]-[Lys(Ac)]-[Pen]*-Phe[4-(2-aminoethoxy)]-[2-Nal]-[THP]-E-N-[3-Pal]-Sarc-NH2 (*[Pen]-[Pen]* formdisulfidebond)]
PASI 100% Improvement, subjects [1]: 1 (16.7%) | PASI ≥75% Improvement, subjects [1]: 3 (50.0%) | PASI ≥90% Improvement, subjects [1]: 1 (16.7%) | Subjects achieving PASI 75 (50 mg QD): 16.3% | PASI 75 treatment difference vs placebo (50 mg QD, Week 16): 48.8% | PASI 90 treatment difference vs placebo (50 mg QD, Week 16): 48.8% (33.3%, | PASI 100 treatment difference vs placebo (50 mg QD, Week 16): 25.6% (12.7%, | Subjects achieving PASI 90 (50 mg QD, Week 16): 22 (51.2%) | Subjects achieving PASI 100 (50 mg QD, Week 16): 11 (25.6%) | PASI 75, % (50 mg QD, Week 16, N=43): 58.1% | PASI 90, % (50 mg QD, Week 16, N=43): 51.2% | PASI 100, % (50 mg QD, Week 16, N=43): 25.6% | PASI 100% Improvement, n subjects [2]: 0 | PASI ≥75% Improvement, % subjects [2]: (50.0%) | PASI ≥75% Improvement, n subjects [2]: 1 | PASI ≥90% Improvement, n subjects [2]: 0 | PASI 100% Improvement, % subjects [3]: (50.0%) | PASI 100% Improvement, n subjects [3]: 1 | PASI ≥75% Improvement, % subjects [3]: (100.0%) | PASI ≥75% Improvement, n subjects [3]: 2 | PASI ≥90% Improvement, % subjects [3]: (100.0%) | PASI ≥90% Improvement, n subjects [3]: 2 | PASI 100% Improvement, n subjects [4]: 0 | PASI ≥75% Improvement, % subjects [4]: (50.0%) | PASI ≥75% Improvement, n subjects [4]: 1 | PASI ≥90% Improvement, % subjects [4]: (50.0%) | PASI ≥90% Improvement, n subjects [4]: 1 | PASI 100% Improvement, n subjects [5]: 0 | PASI ≥75% Improvement, % subjects [5]: (100.0%) | PASI ≥75% Improvement, n subjects [5]: 2 | PASI ≥90% Improvement, % subjects [5]: (100.0%) | PASI ≥90% Improvement, n subjects [5]: 2 | PASI 100% Improvement, subjects [6]: 1 (20.0%) | PASI ≥75% Improvement, subjects [6]: 2 (40.0%) | PASI ≥90% Improvement, subjects [6]: 1 (20.0%) | PASI 100% Improvement, subjects [7]: 2 (40.0%) | PASI ≥75% Improvement, subjects [7]: 3 (60.0%) | PASI ≥90% Improvement, subjects [7]: 3 (60.0%) | PASI 100% Improvement, subjects [8]: 2 (40.0%) | PASI ≥75% Improvement, subjects [8]: 3 (60.0%) | PASI ≥90% Improvement, subjects [8]: 2 (40.0%) | PASI 100% Improvement, subjects [9]: 1 (20.0%) | PASI ≥75% Improvement, subjects [9]: 3 (60.0%) | PASI ≥90% Improvement, subjects [9]: 3 (60.0%) | Subjects achieving PASI 75 (100 mg BID): 23.8% | Subjects achieving PASI 100 (100 mg BID, Week 8): 11.9% | PASI 75 treatment difference vs placebo (100 mg BID, Week 16): 69.4% | PASI 90 treatment difference vs placebo (100 mg BID, Week 16): 57.3% (42.0%, | PASI 100 treatment difference vs placebo (100 mg BID, Week 16): 40.5% (25.8%, | Subjects achieving PASI 90 (100 mg BID, Week 16): (59.5%) | PASI 75, % (100 mg BID, Week 16, N=42): 78.6% | PASI 90, % (100 mg BID, Week 16, N=42): 59.5% | PASI 100, % (100 mg BID, Week 16, N=42): 40.5% | PASI 100% Improvement, % subjects [10]: (50.0%) | PASI 100% Improvement, n subjects [10]: 1 | PASI ≥75% Improvement, n subjects [10]: 2 | PASI ≥90% Improvement, % subjects [10]: (100.0%) | PASI ≥90% Improvement, n subjects [10]: 2 | PASI 100% Improvement, % subjects [11]: (33.3%) | PASI 100% Improvement, n subjects [11]: 1 | PASI ≥75% Improvement, n subjects [11]: 3 | PASI ≥90% Improvement, % subjects [11]: (100.0%) | PASI ≥90% Improvement, n subjects [11]: 3 | PASI 100% Improvement, % subjects [12]: (50.0%) | PASI 100% Improvement, n subjects [12]: 1 | PASI ≥75% Improvement, n subjects [12]: 1 | PASI ≥90% Improvement, % subjects [12]: (50.0%) | PASI ≥90% Improvement, n subjects [12]: 1 | PASI 100% Improvement, % subjects [13]: (66.7%) | PASI 100% Improvement, n subjects [13]: 2 | PASI ≥75% Improvement, n subjects [13]: 3 | PASI ≥90% Improvement, % subjects [13]: (66.7%) | PASI ≥90% Improvement, n subjects [13]: 2 | PASI 100% Improvement, subjects [14]: 1 (25.0%) | PASI ≥75% Improvement, subjects [14]: 3 (75.0%) | PASI ≥90% Improvement, subjects [14]: 50.0%

Reference: patent US20260232767A1, “INTERLEUKIN-23 RECEPTOR ANTAGONIST PEPTIDES FOR USE IN THE TREATMENT OF PSORIASIS” (Janssen Pharmaceutica NV, priority 2023, published 2026)
